Measurements taken from patent US20260285853A1, “COMPOUNDS AND METHODS FOR MODULATING SPLICING” (REMIX THERAPEUTICS INC., priority 2023, published 2026).

Assays:
Test in all cases: Gene panel canonical junction qPCR assay, decrease in CJ mRNA, Table 3
Assay type in all cases: cell-based
HTT mRNA = system: HTT mRNA
Outline: (§1)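 IC50 is the concentration giving 50% response in decrease of the canonical junction transcript, fitted with a 4-parameter logistic equation. Transcripts were quantified by RT-qPCR in A673 or K562 cells after 24 h exposure to compounds dosed up to 10 uM in 3-fold steps.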

MYB mRNA = system: MYB mRNA
Outline: as §1

SMN2 mRNA = system: SMN2 mRNA
Outline: as §1

[1] = decrease in CJ mRNA levels, canonical junction qPCR, gene panel
[2] = decrease in canonical junction (CJ) mRNA, gene panel qPCR, Table 3

| SMILES | IC50 (HTT mRNA; [1]) [µM] | IC50 (MYB mRNA; [1]) [µM] | IC50 (SMN2 mRNA; [1]) [µM] | IC50 (HTT mRNA; [2]) [µM] | IC50 (MYB mRNA; [2]) [µM] | IC50 (SMN2 mRNA; [2]) [µM] |
| --- | --- | --- | --- | --- | --- | --- |
| Cc1cn2cc(NC(=O)c3ccc(N4C[C@@H](C)N[C@@H](C)C4)c4c3nnn4C)cc(F)c2n1 [Compound 635] | 1 to 10 | 0.1 to 1 | < 0.1 |  |  |  |
| CN[C@H]1CCN(c2c(O)cc(C(=O)Nc3cc(F)c4nc(C)cn4c3)c3nn(C)cc23)C1 [Compound 149, N-(8-fluoro-2-methyl-imidazo[1,2-a]pyridin-6-yl)-5-hydroxy-2-methyl-4-[(3S)-3-(methylamino)pyrrolidin-1-yl]-indazole-7-carboxamide] |  |  |  | 1 to 10 | 1 to 10 | 0.1 to 1 |
| Cc1cn2cc(NC(=O)c3c(F)cc(N4CCNCC4)c4occc34)cc(F)c2n1 [Compound 247, 5-fluoro-N-(8-fluoro-2-methylimidazo-[1,2-a]pyridin-6-yl)-7-piperazin-1-yl-benzofuran-4-carboxamide] |  |  |  | > 10 | > 10 | 1 to 10 |
| CCNC1CCN(c2ccc(C(=O)Nc3cc4cn(C)nc4cc3OC)c3[nH]ccc23)CC1 [Compound 178, 4-[4-(ethylamino)-1-piperidyl]-N-(6-methoxy-2-methyl-indazol-5-yl)-1H-indole-7-carboxamide] |  |  |  | > 10 | > 10 | 1 to 10 |
| CN[C@H]1CCN(c2ccc(C(=O)Nc3cc(F)c4nc(C)cn4c3)c3nn(C)cc23)[C@@H]1C (single isomer, unassigned) [Compound 154] |  |  |  | > 10 | 0.1 to 1 | < 0.1 |
| CN[C@@H]1CCN(c2ccc(C(=O)Nc3cc(F)c4nc(C)cn4c3)c3nn(C)cc23)[C@@H]1C (single isomer, unassigned) [Compound 153] |  |  |  | 0.1 to 1 | < 0.1 | < 0.1 |
| Cc1cn2cc(NC(=O)c3ccc(N4C[C@@H](C)N[C@@H](C)C4)c4[nH]c(C)nc34)cc(F)c2n1 [Compound 225, 7-[(3R,5S)-3,5-dimethylpiperazin-1-yl]-N-(8-fluoro-2-methylimidazo[1,2-a]pyridin-6-yl)-2-methyl-1H-1,3-benzodiazole-4-carboxamide] |  |  |  | 1 to 10 | 1 to 10 | 0.1 to 1 |
| CN[C@H]1C[C@@H](C)N(c2ccc(C(=O)Nc3cc(F)c4nc(C)cn4c3)c3nn(C)cc23)C1 (single isomer, unassigned) [Compound 128] |  |  |  | 0.1 to 1 | 0.1 to 1 | < 0.1 |
| Cc1cn2cc(NC(=O)c3ccc(N4C[C@H](C)N[C@@H](C)C4)c4[nH]nnc34)cc(F)c2n1 [Compound 242, 7-[(3S,5S)-3,5-dimethylpiperazin-1-yl]-N-(8-fluoro-2-methyl-imidazo[1,2-a]pyridin-6-yl)-1H-benzotriazole-4-carboxamide] |  |  |  | > 10 | > 10 | 1 to 10 |
| Cc1cn2cc(NC(=O)c3ccc(N4CCNC(C(F)(F)F)C4)c4cn(C)nc34)cc(F)c2n1 (stereo not drawn) [Compound 248, N-(8-fluoro-2-methyl-imidazo[1,2-a]-pyridin-6-yl)-2-methyl-4-[3-(trifluoro-methyl)piperazin-1-yl]indazole-7-carboxamide] |  |  |  | > 10 | 1 to 10 | 0.1 to 1 |
| COCCN[C@@H]1CCN(c2ccc(C(=O)Nc3cc(F)c4nc(C)cn4c3)c3nn(C)cc23)C1 [Compound 113, N-(8-fluoro-2-methyl-imidazo[1,2-a]pyridin-6-yl)-4-[(3R)-3-(2-methoxyethylamino)pyrrolidin-1-yl]-2-methyl-indazole-7-carboxamide] |  |  |  | > 10 | 0.1 to 1 | < 0.1 |
| CCNC1CCN(c2ccc(C(=O)Nc3cc(F)c4nc(C)c(C)n4c3)c3nn(C)cc23)CC1 [Compound 188, 4-[4-(ethylamino)-1-piperidyl]-N-(8-fluoro-2,3-dimethyl-imidazo[1,2-a]pyridin-6-yl)-2-methyl-indazole-7-carboxamide] |  |  |  | > 10 | > 10 | > 10 |
| Cc1cn2cc(NC(=O)c3ccc(N4C[C@@H](C)N[C@@H](C)C4)c4nn(C)nc34)cc(F)c2n1 [Compound 252, 7-((3S,5R)-3,5-dimethyl-piperazin-1-yl)-N-(8-fluoro-2-methyl-imidazo[1,2-a]pyridin-6-yl)-2-methyl-2H-benzo[d][1,2,3]triazole-4-carboxamide 2,2,2-trifluoroacetate] |  |  |  | 0.1 to 1 | 0.1 to 1 | < 0.1 |
| CCNC1CCN(c2ccc(C(=O)Nc3cc(F)c4nc(CF)cn4c3)c3nn(C)cc23)CC1 [Compound 202, 4-[4-(ethylamino)-1-piperidyl]-N-[8-fluoro-2-(fluoromethyl)imidazo[1,2-a]pyridin-6-yl]-2-methyl-indazole-7-carboxamide] |  |  |  | 1 to 10 | < 0.1 | < 0.1 |
| Cc1cn2cc(NS(=O)(=O)c3ccc(N4C[C@@H](C)N[C@@H](C)C4)c4cn(C)nc34)cc(F)c2n1 [Compound 279] |  |  |  | > 10 | > 10 | > 10 |
| CCNC1CCN(c2ccc(C(=O)Nc3cc(OC)c4nc(C)cn4c3)c3nn(C)cc23)CC1 [Compound 175, 4-(4-(ethylamino)piperidin-1-yl)-N-(8-methoxy-2-methyl-imidazo-[1,2-a]pyridin-6-yl)-2-methyl-2H-indazole-7-carboxamide] |  |  |  | 0.1 to 1 | 0.1 to 1 | < 0.1 |
| COc1c(NC(=O)c2c(F)cc(N3CCC(NC4CC4)CC3)c3cn(C)nc23)cn2cc(C)nc2c1F [Compound 207, 4-[4-(cyclopropylamino)-1-piperidyl]-6-fluoro-N-(8-fluoro-7-methoxy-2-methyl-imidazo[1,2-a]pyridin-6-yl)-2-methyl-indazole-7-carboxamide] |  |  |  | < 0.1 | < 0.1 | < 0.1 |
| CN[C@@H]1C[C@@H](C)N(c2ccc(C(=O)Nc3cc(F)c4nc(C)cn4c3)c3nn(C)cc23)C1 [Compound 129, N-(8-fluoro-2-methyl-imidazo[1,2-a]pyridin-6-yl)-2-methyl-4-[(2R,4R)-2-methyl-4-(methylamino)pyrrol-idin-1-yl]indazole-7-carboxamide] |  |  |  | 1 to 10 | 0.1 to 1 | < 0.1 |
| Cc1cn2cc(NC(=O)c3c(F)cc(N4CC[C@H](NCC56CC(CO5)C6)C4)c4cn(C)nc34)cc(F)c2n1 [Compound 157, 6-fluoro-N-(8-fluoro-2-methyl-imidazo[1,2-a]pyridin-6-yl)-2-methyl-4-[(3S)-3-(2-oxabicyclo[2.1.1]hexan-1-ylmethylamino)pyrrolidin-1-yl]indazole-7-carboxamide] |  |  |  | > 10 | 0.1 to 1 | < 0.1 |
| CCNC1CCN(c2ccc(C(=O)Nc3cc(C)c4nc(C)cn4n3)c3nn(C)cc23)CC1 [Compound 186, N-(2,8-dimethylimidazo [1,2-b]pyridazin-6-yl)-4-[4-(ethylamino)-1-piperidyl]-2-methyl-indazole-7-carboxamide] |  |  |  | 0.1 to 1 | 0.1 to 1 | 0.1 to 1 |
| CCNC1CCN(c2ccc(C(=O)Nc3cc(F)c4nc(CC)cn4c3)c3nn(C)cc23)CC1 [Compound 201, 4-[4-(ethylamino)-1-piperidyl]-N-(2-ethyl-8-fluoro-imidazo[1,2-a]pyridin-6-yl)-2-methyl-indazole-7-carboxamide] |  |  |  | 1 to 10 | 1 to 10 | 0.1 to 1 |
